What was measured:
[1] = system: mouse (DBA/1) collagen arthritis; conditions: 17 days after boost, 1 mg/kg oral once a day for 38 days; medium group 2.2; p<0.001; n=16
[2] = system: Renal cancer cell line ACHN cell; assay: Growth inhibitory effect against cancer cell lines (3H-thymidine uptake), ACHN; format: cell-based; conditions: Homo sapiens, ACHN
Summary of the method: (§1)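 IC50 = concentration reducing ^3H-thymidine incorporation to 50% of DMSO control, measured in triplicate. Compound added 24 hrs after plating (1.0×10^4 cells/well); label (0.25 μCi/well) given after 18 hrs of treatment, followed by 6 hrs further culture and scintillation counting of harvested cells.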

[3] = system: colorectal cancer cell line HT-29 cells; assay: Growth inhibitory effect against cancer cell lines (3H-thymidine uptake), HT-29; format: cell-based; conditions: Homo sapiens, HT-29, inhibition of 3H-thymidine uptake; test substance 18 hrs, then 3H-thymidine 6 hrs; triplicate
Summary of the method: as §1

HT-29 cells = assay: Evaluation on the nude-mouse xenograft model; format: in vivo, mouse (Balb/c-nu/nu); conditions: HT-29, po, 240 h, 30 mg/kg orally twice a day for 10 days, tumor volume, treated vs vehicle group, n=6-8, read-out: T/C(%)
Procedure: HT-29 cells (5.0×10^6 cells/100 μL/head, suspended in HBSS (Hanks' solution)) in the logarithmic growth phase were implanted in a mouse (Balb/c-nu/nu) at the right lateral abdomen under ether anesthesia. After 5 days of implantation, the long diameter and short diameter of the tumor were measured, and the mice were divided into groups such that each group has an equivalent average tumor volume. For grouping, a grouping soft (general grouping system (Visions) was used. From the next day of the grouping, a test substance suspended in 0.5% MC (methyl cellulose) was repeatedly orally administered twice a day for 10 days (30 mg/kg). The tumor volume was measured twice a week and used as an index of antitumor activity. As a control, 0.5% MC was used and the test was performed with n=6-8.
The index (T/C (%)) of the antitumor activity was calculated according to the following formula.
T/C(%)=(The average tumor volume of the group treated with a test substance)/(The average tumor volume of the Vehicle group)×100
The tumor volume was calculated according to the following formula.
Tumor volume(mm^3)=L×W×W/2
(L: long diameter (mm) of tumor, W: short diameter (mm) of tumor)

p27 protein = p27 protein induction test (Western blotting); format: cell-based; conditions: test substance (0.1 1M), 24 hrs, ACHN cells or HT-29 cells, compared to DMSO, n=2
Summary of the method: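 p27 level taken as anti-p27 band density by densitometry, mean of n=2, with DMSO as control. Samples loaded at amount equivalent to 10 μg BSA. Cells were ACHN or HT-29, exposed 24 h to […] test substance after 24 h pre-culture.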

B-Raf and MEK1 = B-Raf and MEK1 (Homo sapiens, UniProt Q02750); assay: MEK enzyme inhibitory activity, B-Raf and MEK1 system; format: biochemical; conditions: 30° C., 20 min, [γ-32P]-ATP; average of two or three tests
Procedure: (§2) To an evaluation system where Raf (B-Raf or c-Raf) and MEK (MEK1 or MEK2) were mixed, or MEK (MEK1 or MEK2) and ERK2 were mixed was added a test substance dissolved in DMSO, and an ATP solution containing [γ-32P]-ATP was added to start the enzyme reaction. After reacting at 30° C. for 20 min, the reaction mixture was subjected to SDS-PAGE (sodium dodecylsulfate-polyacrylamide gel electrophoresis) and radioactivity of phosphorylated MEK or ERK2 was measured by Bio Imaging Analyzer (BAS2000, Fuji photo film).

B-Raf and MEK2 = B-Raf and MEK2 (Homo sapiens, UniProt P36507); assay: MEK enzyme inhibitory activity, B-Raf and MEK2 system; format: biochemical; conditions: 30° C., 20 min, [γ-32P]-ATP; average of two or three tests
Procedure: as §2

c-Raf and MEK2 = c-Raf and MEK2 (Homo sapiens, UniProt P36507); assay: MEK enzyme inhibitory activity, c-Raf and MEK2 system; format: biochemical; conditions: 30° C., 20 min, [γ-32P]-ATP; average of two or three tests
Procedure: as §2

MEK1 and ERK2 = MEK1 and ERK2 (Homo sapiens, UniProt Q02750); assay: MEK enzyme inhibitory activity, MEK1 and ERK2 system; format: biochemical; conditions: 30° C., 20 min, [γ-32P]-ATP; average of two or three tests
Procedure: as §2

MEK2 and ERK2 = MEK2 and ERK2 (Homo sapiens, UniProt P36507); assay: MEK enzyme inhibitory activity, MEK2 and ERK2 system; format: biochemical; conditions: 30° C., 20 min, [γ-32P]-ATP; average of two or three tests
Procedure: as §2

p15 protein = assay: Evaluation of p15 induction activity (Western blotting); format: cell-based; conditions: test substance 0.1 μM, 24 hrs, ACHN cells or HT-29 cells, compared to DMSO, n=2
Summary of the method: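 p15 protein quantified by densitometry of anti-p15 Western blots (10 μg protein per lane, mean of n=2). Samples came from HT-29 or ACHN cells given 0.1 μM compound for 24 h after 24 h plating, with DMSO as control.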

[4] = system: ACHN cells or HT-29 cells; assay: Cell cycle analysis (flow cytometry, CycleTEST PLUS); format: cell-based; conditions: test substance less than 10 μM, 24 hrs, compared to DMSO, n=2, read-out: CELL RATIO OF G0/G1 PHASE
Procedure: ACHN cells or HT-29 cells were cultured in a 6 well plate at 2.5×10^5 cells/1.8 mL/well for 24 hrs, then a test substance (less than 10 μM) dissolved in DMSO was added. After 24 hrs, cells were detached using trypsin-EDTA and the DNA content of single cell was analyzed by flow cytometry method using a CycleTEST PLUS (BECKTON DICKINSON) kit, and the proportion of the cells in the G0/G1 phase·S phase·G2/M phase was calculated. As a control, DMSO was used and the test was performed with n=2.

TNF-α or IL-6 = assay: Evaluation on inflammatory cytokine production (LPS-stimulated PBMC); format: cell-based; conditions: human PBMC stimulated with LPS

MEK1 and ERK2, sequence (Q02750 whole entry): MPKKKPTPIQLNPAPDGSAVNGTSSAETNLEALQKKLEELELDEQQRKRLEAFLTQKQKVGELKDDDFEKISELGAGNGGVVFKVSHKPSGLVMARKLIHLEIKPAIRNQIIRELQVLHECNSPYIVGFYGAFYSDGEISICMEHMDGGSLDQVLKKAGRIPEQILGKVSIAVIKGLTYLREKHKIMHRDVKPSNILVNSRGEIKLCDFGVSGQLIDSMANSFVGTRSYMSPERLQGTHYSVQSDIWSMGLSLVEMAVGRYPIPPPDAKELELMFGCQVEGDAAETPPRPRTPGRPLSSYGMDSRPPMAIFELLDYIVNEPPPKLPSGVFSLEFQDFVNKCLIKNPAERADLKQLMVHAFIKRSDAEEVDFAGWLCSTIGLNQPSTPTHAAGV
B-Raf and MEK1, sequence (Q02750 whole entry): as above
MEK2 and ERK2, sequence (P36507 whole entry): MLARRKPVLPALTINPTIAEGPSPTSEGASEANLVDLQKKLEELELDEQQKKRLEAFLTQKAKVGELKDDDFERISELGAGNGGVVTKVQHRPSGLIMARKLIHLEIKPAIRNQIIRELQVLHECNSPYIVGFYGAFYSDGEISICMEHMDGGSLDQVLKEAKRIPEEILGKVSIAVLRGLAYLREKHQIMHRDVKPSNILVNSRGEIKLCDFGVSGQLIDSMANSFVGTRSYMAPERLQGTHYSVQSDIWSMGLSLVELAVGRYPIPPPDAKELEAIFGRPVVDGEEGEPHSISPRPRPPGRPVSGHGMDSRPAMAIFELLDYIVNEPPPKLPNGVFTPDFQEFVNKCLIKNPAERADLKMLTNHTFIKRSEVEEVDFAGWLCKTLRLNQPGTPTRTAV
B-Raf and MEK2, sequence (P36507 whole entry): as above
c-Raf and MEK2, sequence (P36507 whole entry): as above

IC50 [2] [nM] | IC50 [3] [nM] | IC50 of various enzyme reaction system, B-Raf MEK1 (B-Raf and MEK1) [nM] | IC50 of various enzyme reaction system, B-Raf MEK2 (B-Raf and MEK2) [nM] | IC50 of various enzyme reaction system, c-Raf MEK2 (c-Raf and MEK2) [nM] | IC50 of various enzyme reaction system, MEK1 ERK2 (MEK1 and ERK2) [nM] | IC50 of various enzyme reaction system, MEK2 ERK2 (MEK2 and ERK2) [nM] | Compound | arthritis score [1] | response vs control in vivo at 30 mg/kg (HT-29 cells) [%] | fold induction at 0.1 µM (p27 protein) | fold induction at 0.1 µM (p15 protein) | fold induction at up to 10 µM [4] | production of TNF-α or IL-6 (TNF-α or IL-6)
 |  |  |  |  |  |  | CC(=O)Nc1cccc(-n2c(=O)n(C3CC3)c(=O)c3c(Nc4ccc(I)cc4F)n(C)c(=O)c(C)c32)c1.CC(=O)O [N-{3-[3-Cyclopropyl-5-(2-fluoro-4-iodo-phenylamino)-6,8-dimethyl-2,4,7-trioxo-3,4,6,7-tetrahydro-2H-pyrido[4,3-d]pyrimidin-1-yl]-phenyl}-acetamide Acetic Acid Solvate] | 0.57 |  |  |  |  | 
< 10 | < 10 | 6 | 18.8 | 7.8 | 1300 | 1600 | Cn1c(=O)cc(Nc2ccc(I)cc2F)c2c(=O)n(C3CC3)c(=O)n(-c3cccc(NS(C)(=O)=O)c3)c21 [Example 1-257] |  | 26 | ≥ 1.5 |  |  | 
< 10 | < 10 |  |  |  |  |  | Cc1c(=O)n(C)c(Nc2ccc(I)cc2F)c2c(=O)n(C)c(=O)n(-c3cccc(NS(C)(=O)=O)c3)c12 [Example 4-16, N-{3-[5-(2-fluoro-4-iodophenylamino)-3,6,8-trimethyl-2,4,7-trioxo-3,4,6,7-tetrahydro-2H-pyrido[4,3-d]pyrimidin-1-yl]phenyl}methanesulfonamide] |  | 10 | ≥ 1.5 | ≥ 1.5 | ≥ 1.2 | suppressed
